Measured values as given in patent US20230076977A1, “UTROPHIN UPREGULATION COMPOUNDS FOR DUCHENNE MUSCULAR DYSTROPHY THERAPY” (THE TRUSTEES OF THE UNIVERSITY OF PENNSYLVANIA, priority 2020, published 2023).
Read-outs that look alike come from different tables or passages of the source.

Tests used:
[1] = tested on: 5′- and 3′-UTRs of human utrophin; test: Screening assay: C2C12 stable reporter line, CMV-driven luciferase flanked by utrophin 5′ and 3′ UTRs; type: cell-based; conditions: for EC50: C2C12
Experimental: (§1) The construct for the HTS assay was generated by cloning the 5′- and 3′-UTRs of human utrophin into pGL4:50-hygro (Promega, Madison, Wis.) at the 5′ and 3′ of the luciferase coding sequence and has been described previously by Moorwood. […] For the counterscreening assay, the pGL4:50-hygro plasmid was used alone. Low passage C2C12 cells obtained from ATCC were transfected with either constructs, stably selected with 500 μg/mL hygromycin and subcloned using two rounds of serial dilutions to isolate single cell-derived colonies in a 96 wells plate format. […] The selected clones were cultured in presence of 100 μg/mL hygromycin B and were transferred to the HTS Facility at the University of Pennsylvania for implementation into a 384-wells format suitable for HTS.
(§2) The construct for generating the screening C2C12 cell line carrying the 5′ and 3′UTR of the human utrophin gene is described by Moorwood. […] Some compounds could increase light emission independently from the 5′ and 3′UTR regions, i.e., by activating the CMV promoter or increasing overall mRNA synthesis. Therefore, in order to distinguish such compounds, a counterscreening cell line stably expressing only the CMV-driven luciferase gene was generated (FIG. 1A). To determine optimal conditions for the implementation in a 384-wells high-throughput format, evaluated were DMSO tolerance, optimal cell density and incubation time (FIG. 5A-5C).
(§3) A first criterion for evaluating the performance of the selected hits was whether their activity was dose-dependent. After performing a dose-response analysis (5 nM to 10 μM) of each hit in the screening cell line, a clustering approach was applied (complete linkage with Euclidean distance measurement) to highlight similarities between compounds profiles. […] By modeling each dose-response trace with a 4-parameter logistic model applied to the Z— score values (FIG. 2B), the EC50 of each molecule was calculated.
(§4) Cells were allowed to attach overnight at 37° C., 5% CO2 in a humidified chamber. […] Compounds were added to a final concentration of 1 μM and 100 nM in 0.2% DMSO. Columns 1 and 23 were treated with 0.2% DMSO (negative control). Columns 2 and 24 were treated with 100 nM Panobinostat (positive control). Cells were incubated for 24 hours at 37° C., 5% CO2. […] Luminescence was measured on an EnVisionXcite Multilabel Plate Reader (PerkinElmer), using ultrasensitive luminescence measurement technology.

[2] = tested on: CMV-driven luciferase gene; test: Counterscreening assay: C2C12 line stably expressing only the CMV-driven luciferase gene; type: cell-based; conditions: Mus musculus, C2C12, read-out: counterscreening EC50
Experimental: as §1, §2, §3, §4

[3] = tested on: HDAC activity and proliferation of cancer cells; conditions: depending on the particular cell line; cited from earlier work
C2C12 cells = test: Cytotoxicity in C2C12 cells treated with increasing TSA concentrations; type: cell-based; conditions: 24 hours
Experimental: (§5) TSA is a broad-spectrum HDAC inhibitor. […] To further validate in vitro the dose-dependent capacity of TSA to upregulate utrophin protein, C2C12 cells were treated for 24 hours with increasing concentrations of TSA (from 1 nM to 10 μM) (FIG. 3B). Consistent with the single-dose western blot validation experiments, utrophin protein levels were increased 4.3 times by 1 μM TSA. […] Some cytotoxicity was evident for TSA concentrations higher than 1 μM.

mdx mouse model of DMD = test: Preclinical TSA treatment in the mdx mouse model of DMD; type: in vivo
Experimental: Four-week-old mdx mice (C57BL/10ScSn-DMDmdx/J) were injected intraperitoneally on alternate days with Trichostatin A (Wako Chemicals USA-Inc, Richmond, Va.; dose 30 μg/kg), or an equal volume of sterile PBS for three months. All animal experiments were approved by the Institutional Animal Care and Use Committee at the University of Pennsylvania School of Medicine.
Functional in vivo and ex vivo analyses including rotarod, EDL strength, and sensitivity to damage induced by lengthening contractions (ECC), were performed as described by Krag, et al. Proc. Natl. Acad. Sci. U.S.A. 101, 13856-13860 (2004) and Bogdanovich, S. et al. Functional improvement of dystrophic muscle by myostatin blockade. Nature 420, 418-421 (2002), each of which is incorporated herein by reference in its entirety. Following the procedure, muscles were flash-frozen in liquid nitrogen-cooled isopentane and stored at −80° C.
(§6) Total RNA was extracted from TA muscle samples with RNAeasy kit (Qiagen, USA) and reverse transcribed with random hexamers. qPCR was performed using Taqman probes for Utrophin (Assay ID Mm01168846_ml) and β-actin. Muscle tissue samples were lysed with TNEC buffer (50 mM Tris-HCl, pH 8.0; 150 mMNaCl; 1% NP40; 2 mM EDTA) buffer containing complete protease inhibitor cocktail (Roche, Basel, Switzerland). C2C12 cells were treated for 24 h with 1 μM concentrations of compounds from a fresh batch (3 wells for each compound), and cell samples were lysed with RIPA buffer with protease inhibitor cocktail. The experiment was repeated three independent times. 50-75 μg of total proteins from muscle tissues, or 4 μg of cell protein extracts, were resolved on a 3-8% Tris-Acetate gradient gel (NuPage; Invitrogen), transferred to PDVF or nitrocellulose membranes and mouse monoclonal anti-utrophin antibody MANCHO3 clone 8A4 (developed by Glenn E. Morris and obtained from the Developmental Studies Hybridoma Bank, Iowa) or a custom-made anti-UtrophinA rabbit polyclonal antibody (muscle tissue samples) generated and described previously by Chakkalakal et al., Nucleic Acids Res. 36, 826-838 (2008), which is incorporated herein by reference in its entirety.
To test the ability of TSA to increase utrophin in vivo and improve the dystrophic phenotype, 4 week-old mdx mice were treated with i.p. injections of 30 μg/kg body weight TSA, on alternating days for a total of 3 months.

[4] = tested on: utrophin protein in C2C12 cells; test: Utrophin western blot in C2C12 cells (endogenous protein expression); type: cell-based; conditions: 24 hours
Experimental: The 10 highest scoring hits were selected from this subset for performing in vitro validation. C2C12 cells were treated with 1 μM concentrations of the selected hits for 24 hours, followed by western blot evaluation of utrophin levels as an orthogonal assay for endogenous protein expression. […] Panobinostat, an FDA-approved non-selective HDAC inhibitor for cancer treatment, increased utrophin levels by 1.9-fold. […] AR-42 (S2244), another HDAC inhibitor with proven preclinical efficacy in contrasting cancer-induced cachexia, increased utrophin by 2.3-fold and had the second highest H2LPS. Consistent with the calculated HPS, the highest scoring hit, TSA (S1045), had also the highest magnitude of protein upregulation (3.9-fold) followed by PCI-24781 (S1090; 3.7-fold). Importantly, high H2LPS was generally correlated with confirmation in WB assays (FIG. 2E).
as §6, §5

[5] = ex vivo EDL, treated mdx, normalized by cross sectional area
[6] = treated mdx, TSA 30 μg/kg i.p. alternate days, 3 months

CC(/C=C/C(=O)NO)=C\[C@@H](C)C(=O)c1ccc(N(C)C)cc1 [Trichostatin A]
EC50 ([1]; 4-parameter logistic fit of Z-scores, 24 h, no unit in table (0.013 = 13 nM), read-out: EC50 screen): 13 nM
EC50 ([1]; read-out: EC50 score (1 to 4)): < 50 nM
EC50 ([1]; read-out: screening EC50): 13 nM
Upper-lower limits scoren ([1]; difference between upper and lower boundaries of the fitted dose-response screening curve): 34.53
Fold diff ([1]; fold difference between the EC50s of screening and counterscreening): 119.82
EC50 [2]: 1300 nM
IC50 in vitro [3]: nM to μM range
concentrations at which some cytotoxicity was evident (C2C12 cells): higher than 1 μM
ECC force drop 1-5 (mdx mouse model of DMD; EDL, 5 consecutive eccentric contractions, treated mdx): 25.81 ± 4.46%
less force lost than control-treated muscles after the 5th ECC (mdx mouse model of DMD; EDL, series of 5 ECCs, FIG. 4G): 37%
Utrophin mRNA levels increased (mdx mouse model of DMD; TA muscle, qPCR, after TSA treatment): 4.9 fold
utrophin protein levels increased (mdx mouse model of DMD; TA muscle, western blot, after TSA treatment): 2 fold
myostatin or follistatin gene expression (mdx mouse model of DMD; TA muscles, FIG. 7): did not cause changes
lower number of centrally nucleated fibers (mdx mouse model of DMD; TSA-treated EDL muscles vs control): 30%
isometric twitch and tetanic strength of EDL muscles (mdx mouse model of DMD; before and after normalization by crossectional area): significantly higher
effect on body weight or the wet weight of skeletal muscles and organs (mdx mouse model of DMD; compared to control-treated mice): did not affect
EDL Tetanic force (mdx mouse model of DMD; ex vivo EDL, treated mdx): 351.9 ± 16.61 mN
EDL Twitch force (mdx mouse model of DMD; ex vivo EDL, treated mdx): 64.19 ± 4.22 mN
EDL Tetanic force (specific) (mdx mouse model of DMD; [5]): 166.0 ± 9.09 mN/mm^2
EDL Twitch force (specific) (mdx mouse model of DMD; [5]): 29.98 ± 1.84 mN/mm^2
serum creatine kinase or hydroxyproline content in TA and diaphragm muscles (mdx mouse model of DMD; mouse, in vivo): No significant changes
Diaphragm Hydroxyproline Diaphragm (mdx mouse model of DMD; treated mdx): 3.33 ± 0.22 µg/mg
Diaphragm Hydroxyproline TA (mdx mouse model of DMD; treated mdx): 0.90 ± 0.06 µg/mg
EDL CNF (centrally nucleated fibers) (mdx mouse model of DMD; treated mdx): 24.62 ± 2.30%
EDL CSA (cross sectional area) (mdx mouse model of DMD; treated mdx): 2.20 ± 0.13 mm^2
EDL L0 (muscle length) (mdx mouse model of DMD; treated mdx): 12.16 ± 0.20 mm
Serum CK (mdx mouse model of DMD; treated mdx): 7450 ± 2381 U/L
EDL muscle weight (mdx mouse model of DMD; [6]): 17.5 ± 0.4 mg
Gastrocnemius muscle weight (mdx mouse model of DMD; [6]): 213.0 ± 11.0 mg
Heart weight (mdx mouse model of DMD; [6]): 159.7 ± 5.2 mg
Kidneys weight (mdx mouse model of DMD; [6]): 532.3 ± 25.8 mg
Liver weight (mdx mouse model of DMD; [6]): 1179.0 ± 36.4 mg
Quadriceps muscle weight (mdx mouse model of DMD; [6]): 234.6 ± 8.7 mg
Soleus muscle weight (mdx mouse model of DMD; [6]): 12.8 ± 0.4 mg
Tibialis Anterior (TA) muscle weight (mdx mouse model of DMD; [6]): 66.1 ± 1.5 mg
Body weight (mdx mouse model of DMD; treated mdx, TSA 30 μg/kg i.p. alternate days, 3 months, mean ± SEM): 30.2 ± 0.5 g
rotarod test performance (mdx mouse model of DMD; treated vs control mdx): performed significantly better than control mdx
Utrophin protein levels, fold increase ([4]; 1 μM, normalized to tubulin, vs 0.1% DMSO control): 3.9 fold
EC50 ([4]; Mus musculus, C2C12, 1 nM to 10 μM, read-out: EC50 for utrophin protein levels): 88 nM
utrophin protein levels increased ([4]; dose-response western blot, 1 μM TSA): 4.3 times
